Numbering of substitutions follows the chain as printed. Where a name gives a salt, the structure may show the parent alone.
Tests used:
DPAGT1 Tyr170Cys = target: T1, DPAGT1 Tyr170Cys (Homo sapiens, UniProt Q9H3H5, Y170C); experiment: Thermostability assay (label free differential scanning fluorimetry); assay type: binding, H. sapiens; conditions: 50 μM compound
T1 construct: combined with the LIC-adapted primers to amplify the complete DPAGT1 gene, including the desired mutations; 6xHis purification tag with TEV site (N, cleaved yes); made in house; host or cells: Spodoptera frugiperda Sf9 insect cells (baculovirus)
T1 sequence (Q9H3H5 1-408 Y170C): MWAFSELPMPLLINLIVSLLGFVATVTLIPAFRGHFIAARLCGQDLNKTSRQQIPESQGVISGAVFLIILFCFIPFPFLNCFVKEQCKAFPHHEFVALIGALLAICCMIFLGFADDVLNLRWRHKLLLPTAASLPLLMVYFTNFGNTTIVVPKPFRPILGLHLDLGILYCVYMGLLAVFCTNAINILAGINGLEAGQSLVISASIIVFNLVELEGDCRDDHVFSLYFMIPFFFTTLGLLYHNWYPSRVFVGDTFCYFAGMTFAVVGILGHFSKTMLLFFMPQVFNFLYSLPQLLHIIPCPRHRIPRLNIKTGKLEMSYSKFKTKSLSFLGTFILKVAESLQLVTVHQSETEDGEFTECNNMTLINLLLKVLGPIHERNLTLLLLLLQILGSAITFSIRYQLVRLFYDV
Procedure: (§1) Samples with a volume of 40 μl were prepared containing 0.5 mg/ml protein and 50 μM compound or 5% DMSO in GFB. A glass capillary was dipped into each sample, with the capillary held horizontally to ensure that the capillary was full of the sample. The capillaries were placed on the capillary holder on the Nanotemper Prometheus. Technical triplicates of each sample were prepared, and each experiment was conducted with biological triplicates of each protein. PR.ThermControl software was used to run the experiment and analyse the data. A melting curve from 20 °C – 95 °C at 5 °C/min was performed. The minimum of the first derivative of the 330/350nm ratio was used to determine the Tm1/2.

DPAGT1 Leu168Pro = target: T2, DPAGT1 Leu168Pro (Homo sapiens, UniProt Q9H3H5, L168P); experiment: as above; assay type: binding, H. sapiens; conditions: 50 μM compound
T2 construct: combined with the LIC-adapted primers to amplify the complete DPAGT1 gene, including the desired mutations; 6xHis purification tag with TEV site (N, cleaved yes); made in house; host or cells: Spodoptera frugiperda Sf9 insect cells (baculovirus)
T2 sequence (Q9H3H5 1-408 L168P): T1 sequence (Q9H3H5 1-408 Y170C) with L168P, C170Y
Procedure: as §1

DPAGT1 Arg301His = target: T3, DPAGT1 Arg301His (Homo sapiens, UniProt Q9H3H5, R301H); experiment: as above; assay type: binding, H. sapiens; conditions: 50 μM compound
T3 construct: combined with the LIC-adapted primers to amplify the complete DPAGT1 gene, including the desired mutations; 6xHis purification tag with TEV site (N, cleaved yes); made in house; host or cells: Spodoptera frugiperda Sf9 insect cells (baculovirus)
T3 sequence (Q9H3H5 1-408 R301H): T1 sequence (Q9H3H5 1-408 Y170C) with C170Y, R301H
Procedure: as §1

[1] = Tolerance testing in uninfected mice; assay type: in vivo; conditions: uninfected mice (n=5), 10 days, daily 30 mg.kg^-1 ip

SMILES: N[C@H]1[C@H](O[C@H]2O[C@H](CO)[C@@H](O)[C@H](O)[C@H]2N)O[C@H](C[C@@H](O)[C@H]2O[C@@H](n3ccc(=O)[nH]c3=O)[C@H](O)[C@@H]2O)[C@H](O)[C@@H]1O [TUN, α-D-glucosamine-(1”-11')-tunicamyl uracil dihydrochloride]
- Thermostability (Tm1/2) with added compound (DPAGT1 Tyr170Cys): 83.1±0.8 °C
- Thermostability (Tm1/2) with added compound (DPAGT1 Leu168Pro): 84.0±0.2 °C
- Thermostability (Tm1/2) with added compound (DPAGT1 Arg301His): 81.2±0.5 °C

SMILES: CCCCCCCC(=O)N[C@H]1[C@H](O[C@H]2O[C@H](CO)[C@@H](O)[C@H](O)[C@H]2NC(=O)CCCCCCC)O[C@H](C[C@@H](O)[C@H]2O[C@@H](n3ccc(=O)[nH]c3=O)[C@H](O)[C@@H]2O)[C@H](O)[C@@H]1O [TUN-8,8, Di-N-octanoyl-tunicamycin]
- tolerance, signs of toxicity [1]: no signs of toxicity

— article PMC6218659, “Structures of DPAGT1 Explain Glycosylation Disease Mechanisms and Advance TB Antibiotic Design” (Cell, 2018)
